pIC50: −log10 of the molar value.
Biological target: T1, human MPO (Homo sapiens, UniProt P05164)
T1 sequence (P05164 49-745): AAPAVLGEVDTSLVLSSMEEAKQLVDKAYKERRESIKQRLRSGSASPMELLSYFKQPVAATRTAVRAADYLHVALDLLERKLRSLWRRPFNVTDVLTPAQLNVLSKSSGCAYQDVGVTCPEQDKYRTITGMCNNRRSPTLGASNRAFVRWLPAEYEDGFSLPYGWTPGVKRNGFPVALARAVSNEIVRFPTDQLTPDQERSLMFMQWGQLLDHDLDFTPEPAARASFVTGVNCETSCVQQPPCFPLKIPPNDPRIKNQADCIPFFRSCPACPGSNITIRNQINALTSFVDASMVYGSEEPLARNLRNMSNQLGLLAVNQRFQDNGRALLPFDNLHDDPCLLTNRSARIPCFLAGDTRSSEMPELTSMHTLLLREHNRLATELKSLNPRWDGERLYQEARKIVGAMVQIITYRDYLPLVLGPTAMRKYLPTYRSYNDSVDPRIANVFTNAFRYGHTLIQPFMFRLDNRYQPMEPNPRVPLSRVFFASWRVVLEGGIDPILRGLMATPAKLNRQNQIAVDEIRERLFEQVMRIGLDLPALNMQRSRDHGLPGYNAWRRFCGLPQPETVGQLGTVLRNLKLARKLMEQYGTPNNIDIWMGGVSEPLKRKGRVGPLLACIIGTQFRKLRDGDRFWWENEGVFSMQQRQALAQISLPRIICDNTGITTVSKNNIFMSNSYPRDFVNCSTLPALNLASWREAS
Assay: MPO inhibition screen (TMB oxidation, absorbance)
Type: biochemical
Conditions: in the presence of tyrosine (final 8 μM); human MPO 2.5 nM; H2O2 100 μM
Protocol: Methods for the determination of MPO inhibitory activity are disclosed in patent application WO 02/090575. The pharmacological activity of compounds according to the invention was tested in the following screen in which the compounds were either tested alone or in the presence of added tyrosine:
Assay buffer: 20 mM sodium/potassium phosphate buffer pH 6.5 containing 10 mM taurine and 100 mM NaCl.
Developing reagent: 2 mM 3,3′,5,5′-tetramethylbenzidine (TMB), 200 μM KI, 200 mM acetate buffer pH 5.4 with 20% DMF.
To 10 μl of diluted compounds in assay buffer, 40 μl of human MPO (final concentration 2.5 nM), with or without 20 μM tyrosine (final concentration, if present, 8 μM), was added and the mixture was incubated for 10 minutes at ambient temperature. Then 50 μl of H2O2 (final concentration 100 μM), or assay buffer alone as a control, were added. After incubation for 10 minutes at ambient temperature, the reaction was stopped by adding 10 μl 0.2 mg/ml of catalase (final concentration 18 μg/ml). The reaction mixture was left for an additional 5 minutes before 100 μl of TMB developing reagent was added. The amount of oxidised 3,3′,5,5′-tetramethylbenzidine formed was then measured after about 5 minutes using absorbance spectroscopy at about […]. IC50 values were then determined using standard procedures.

| pIC50 | SMILES |
| --- | --- |
| 5.44 | O[C@@H]1CCCC[C@H]1n1c(COc2ccccc2Cl)n[nH]c1=S (relative stereo) [Example 2, 5-(2-Chloro-phenoxymethyl)-4-(trans-2-hydroxycyclohexyl)-2,4-dihydro-[1,2,4]triazole-3-thione] |
| 5.17 | S=c1[nH]nc(Cc2ccccn2)n1C1CC2C=CC1C2 (stereo not drawn) [Example 4, 4-(Bicyclo[2.2.1]hept-5-en-2-yl)-5-pyridin-2-ylmethyl-2,4-dihydro-[1,2,4]triazole-3-thione] |
| 5.14 | S=c1[nH]nc(Cc2ccccn2)n1C1CCN(Cc2ccccc2)C1 (stereo not drawn) [Example 5, 4-(1-Benzyl-pyrrolidin-3-yl)-5-pyridin-2-ylmethyl-2,4-dihydro-[1,2,4]triazole-3-thione] |
